From ChEMBL document CHEMBL5120967, “Development of an Orally Active Small-Molecule Inhibitor of Receptor Activator of Nuclear Factor-κB Ligand” (J Med Chem, 2022) come the findings set out here.

The term clearance denotes a measure of how efficiently the substance is removed, as volume per time. As usually defined, the half-life is the time needed for the level to fall by half in the phase considered. Usually AUC(0-t) stands for the area under the concentration-time curve up to a stated or last time point. The Cmax is the highest concentration seen after dosing. The bioavailability is dose-corrected exposure relative to a reference, in per cent.

The subject of data set [1] is BMDM. The data set can be described thus: Cytotoxicity against C57/BL6 mouse bone marrow macrophage cells assessed as reduction in cell viability at 10 uM incubated for 3 days by CCK8 assay. The data set is classed as toxicity, cell-based. The conditions noted are these: 72 h, time 3 day. Background: Tetrazolium dyes change colour on reduction, which living cells bring about.

Data set [2] can be described thus: Anti-osteoporosis activity C57/BL6 mouse bone marrow macrophage cells assessed as inhibition of RANKL-induced osteoclastogenesis at 1 uM measured after 5 to 6 days in presence of M-CSF and RNKL by TRAP staining microscopic analysis. The data set is classed as functional, BMDM. More on the design: scale not given: the % may be the effect or the level left. The conditions noted are these: time 5-6 day.

Data set [3] can be described thus: Anti-osteoporosis activity C57/BL6 mouse bone marrow macrophage cells assessed as inhibition of RANKL-induced osteoclastogenesis at 0.1 uM measured after 5 to 6 days in presence of M-CSF and RNKL by TRAP staining microscopic analysis. The data set is classed as functional, BMDM. Further details: scale not given: the % may be the effect or the level left. The conditions noted are these: time 5-6 day.

A short description of data set [4]: Clearance in OVX-induced C57/BL6 mouse model at 3 mg/kg, iv. The class given is ADME, organism-based. The conditions noted are these: female, in vivo.
A short description of data set [5]: Half life in OVX-induced C57/BL6 mouse model at 3 mg/kg, iv. The data set is classed as ADME, organism-based. Conditions: female, in vivo.
Data set [6] in a line: AUC(0 to t) in OVX-induced C57/BL6 mouse model at 5 mg/kg, po. The data set is classed as ADME, organism-based. More on the design: dose 5 mg/kg, route po. Conditions: female, in vivo.
Data set [7] is described as follows: Half life in OVX-induced C57/BL6 mouse model at 5 mg/kg, po. The data set is classed as ADME, organism-based. Conditions: female, in vivo.
A short description of data set [8]: Cmax in OVX-induced C57/BL6 mouse model at 5 mg/kg, po. The class given is ADME, organism-based. More on the design: dose 5 mg/kg, route po. The conditions noted are these: female, in vivo.
Data set [9] is described as follows: Oral bioavailability in OVX-induced C57/BL6 mouse model. The class given is ADME, organism-based. Conditions: female, in vivo.
Data set [10] can be described thus: AUC(0 to t) in OVX-induced C57/BL6 mouse model at 3 mg/kg, iv. The class given is ADME, organism-based. Conditions: female, in vivo. More on the design: dose 3 mg/kg, route iv.

With `CC(=O)Nc1ccc(CCc2nc(C(=O)Nc3c(C)cccc3C)cc3c2[nH]c2ccccc23)cc1`, the Cell viability in data set [1] is greater than 100%. In addition, the results for the Activity in [2] and in data set [3] were 55% and 19%, respectively.

Take `COC(=O)c1ccc(CCc2nc(C(=O)Nc3c(C)cccc3C)cc3c2[nH]c2ccccc23)cc1`: the Cell viability in data set [1] was 99.6%. Besides, the Activity is listed as 77.6% in data set [2] and 28.5% in [3].

On to `O=C(c1cc2c([nH]c3ccccc32)c(CCc2ccccc2)n1)N1CCOCC1`, for which, in data set [1], the Cell viability is recorded as greater than 100%. Also, in [2], the Activity worked out at 32.6%.

On to `O=C(Nc1cccnc1)c1cc2c([nH]c3ccccc32)c(CCc2ccccc2)n1`, for which the Cell viability in [1] was greater than 100%. The Activity in data set [2] is recorded as 18.3%.

Consider `Cl.O=C(NC1CCNCC1)c1cc2c([nH]c3ccccc32)c(CCc2ccccc2)n1`, for which the Cell viability in [1] is on record as 47.9%. Moreover, the Activity in [2] is 0%.

Turning to `Cc1cccc(C)c1NC(=O)c1cc2c([nH]c3ccccc32)c(CCc2ccccc2O)n1`, in [1], the Cell viability is recorded as 87.1%. Besides, the Activity in [2] came out at 36%.

With `Cc1cccc(C)c1NC(=O)c1cc2c([nH]c3ccccc32)c(CCc2ccncc2)n1`, the Cell viability in data set [1] was greater than 100%. The values for the Activity in data set [2] and in data set [3] were 79.1% and 29.8%, respectively.

Regarding `O=C(Nc1cc[nH]n1)c1cc2c([nH]c3ccccc32)c(CCc2ccccc2)n1`, the Cell viability in data set [1] is reported as greater than 100%. Also, the Activity in [2] turned out to be 39.9%.

`Cc1cccc(C)c1NC(=O)c1cc2c([nH]c3ccccc32)c(CCc2ccc(N(C)C)cc2)n1`: in data set [1], the Cell viability was greater than 100%. Also, the Activity in data set [2] came to 54.7%; in data set [3], 36.7%.

Regarding `Cc1cccc(C)c1NC(=O)c1cc2c([nH]c3ccccc32)c(CCc2cc(F)cc(F)c2)n1`, the Cell viability in data set [1] is greater than 100%. Further, the Activity in data set [2] came out at 35.2%.

`Cc1cc2occ(CN(C)CCN(C)Cc3cn(-c4cccc(C(F)(F)F)c4)c4ccccc34)c(=O)c2cc1C`: the Cell viability in [1] is given as 3.8%. Besides, the Activity in [2] is listed as 56.1%; in [3], 18.4%.

For `Cc1cccc(C)c1NC(=O)c1cc2c([nH]c3ccccc32)c(CCc2ccc(Cl)cc2)n1`, the Cell viability in [1] was greater than 100%. Moreover, the figures for the Activity in data set [2] and in [3] were 52.5% and 11.3%, respectively.

With `O=C(Nc1nccs1)c1cc2c([nH]c3ccccc32)c(CCc2ccccc2)n1`, the Cell viability in data set [1] is on record as greater than 100%. Further, the Activity in [2] was 27%.

Consider `COc1ccc(CCc2nc(C(=O)Nc3c(C)cccc3C)cc3c2[nH]c2ccccc23)cc1`, for which the Cell viability in data set [1] is on record as greater than 100%. The figures for the Activity in data set [2] and in data set [3] were 75.7% and 29.3%, respectively.

As for `Cc1cccc(C)c1NC(=O)c1cc2c([nH]c3ccccc32)c(CCc2ccc(C(=O)O)cc2)n1`, the Cell viability in [1] was greater than 100%. The Activity is 85.9% in data set [2] and 37.6% in data set [3].

For `COc1ccccc1CCc1nc(C(=O)Nc2c(C)cccc2C)cc2c1[nH]c1ccccc12`, in data set [1], the Cell viability was greater than 100%. Besides, the Activity worked out at 83% in data set [2] and 33.6% in [3].

Regarding `Cc1cccc(C)c1NC(=O)c1cc2c([nH]c3ccccc32)c(CCc2cccc(F)c2)n1`, the Cell viability in [1] was greater than 100%. The values for the Activity in data set [2] and in data set [3] were 54.7% and 21%, respectively.

For `COc1cccc(CCc2nc(C(=O)Nc3c(C)cccc3C)cc3c2[nH]c2ccccc23)c1`, the Cell viability in data set [1] is listed as greater than 100%. Besides, the Activity came out at 82.3% in data set [2] and 27.1% in [3].

In the case of `Cc1cccc(C)c1NC(=O)c1cc2c([nH]c3ccccc32)c(CCc2ccc(C#N)cc2)n1`, the Cell viability in data set [1] was greater than 100%. For the same compound, the Activity in [2] was determined as 79.5%; in data set [3] it was 16.5%.

On to `Cc1cccc(C)c1NC(=O)c1cc2c([nH]c3ccccc32)c(CNc2ccccc2)n1`, for which the Cell viability in data set [1] was determined as 67.6%.

In the case of `O=C(NC1CCCCC1)c1cc2c([nH]c3ccccc32)c(CCc2ccccc2)n1`, the Cell viability in data set [1] is greater than 100%. The Activity in [2] is given as 0%.

As to `Cc1cccc(C)c1NC(=O)C(Cc1c[nH]c2ccccc12)NCCCc1ccccc1` (centres undefined), the Cell viability in data set [1] is greater than 100%. This compound also gave a clearance in data set [4] of 51 mL/min/kg. Moreover, the half-life in [5] is 1.2 h; in data set [7], 0.9 h. The Activity in data set [2] is 32%. The AUC(0-t) in data set [6] was 38.8 ng·h/mL; in data set [10], 984 ng·h/mL. In data set [8], this compound displayed a Cmax of 10 ng/mL. The same compound showed a bioavailability in data set [9] of 2.4%.

As to `O=C(Nc1ccccn1)c1cc2c([nH]c3ccccc32)c(CCc2ccccc2)n1`, in [1], the Cell viability is reported as greater than 100%. Moreover, the Activity in [2] came to 36.1%.

On to `Cc1cccc(C)c1NC(=O)c1cc2c([nH]c3ccccc32)c(CCC2CCCCC2)n1`, for which, in data set [1], the Cell viability was greater than 100%. In addition, the Activity in data set [2] stood at 52.8%; in data set [3], 9.1%.

For the compound `Cc1cccc(C)c1NC(=O)c1cc2c([nH]c3ccccc32)c(CCc2ncc[nH]2)n1`, the Cell viability in [1] is greater than 100%. In [2], the Activity is 28.6%.

Turning to `Cc1cccc(C)c1NC(=O)c1cc2c([nH]c3ccccc32)c(CCc2ccc(C(F)(F)F)cc2)n1`, the Cell viability in data set [1] is greater than 100%. In addition, the values for the Activity in data set [2] and in [3] were 72.5% and 19.5%, respectively.

`Cc1cccc(C)c1NC(=O)c1cc2c([nH]c3ccccc32)c(CCc2ccc(N)cc2)n1`: the Cell viability in [1] was greater than 100%. Also, the Activity in [2] is 70.3%; in [3] it was 11.4%.

Take `O=C(NC1CCOCC1)c1cc2c([nH]c3ccccc32)c(CCc2ccccc2)n1`: the Cell viability in [1] is reported as greater than 100%. Also, in data set [2], the Activity is 47.9%.

`Cn1cc(NC(=O)c2cc3c([nH]c4ccccc43)c(CCc3ccccc3)n2)cn1`: the Cell viability in data set [1] is on record as greater than 100%. In addition, the Activity in [2] came out at 0%.

Regarding `Cc1cccc(C)c1NC(=O)c1cc2c([nH]c3ccccc32)c(CCc2ccccc2F)n1`, the Cell viability in [1] is listed as greater than 100%. Also, the Activity in data set [2] came to 66.7%; in data set [3], 26.7%.

With `Cc1cccc(C)c1NC(=O)c1cc2c([nH]c3ccccc32)c(CCc2cccnc2)n1`, the Cell viability in data set [1] amounted to 51.2%.

Regarding `O=C(NC1CC1)c1cc2c([nH]c3ccccc32)c(CCc2ccccc2)n1`, in data set [1], the Cell viability is reported as greater than 100%. In addition, the Activity in data set [2] was determined as 0%.

On to `Cc1cccc(C)c1NC(=O)c1cc2c([nH]c3ccccc32)c(CCc2cccc(O)c2)n1`, for which the Cell viability in [1] is listed as greater than 100%. The Activity in data set [2] stood at 0%.

On to `Cc1cccc(C)c1NC(=O)c1cc2c([nH]c3ccccc32)c(CCc2ccc(P(C)(C)=O)cc2)n1`, for which the Cell viability in [1] is on record as greater than 100%. Also, the Activity in data set [2] is 81.6%; in data set [3], 32.6%.

As to `O=C(NCc1ccccc1)c1cc2c([nH]c3ccccc32)c(CCc2ccccc2)n1`, the Cell viability in data set [1] is recorded as greater than 100%. In addition, the Activity in data set [2] came out at 0%.

In the case of `Cc1cccc(C)c1NC(=O)c1cc2c([nH]c3ccccc32)c(CCc2ccc(O)cc2)n1`, the Cell viability in data set [1] worked out at 76.9%. The Activity in data set [2] is on record as 23.8%.

As for `Cc1ccc(CCc2nc(C(=O)Nc3c(C)cccc3C)cc3c2[nH]c2ccccc23)cc1`, the Cell viability in [1] was greater than 100%. In addition, the Activity in data set [2] came out at 77.6%; in [3], 16.2%.

For the compound `Cc1cccc(C)c1NC(=O)c1cc2c([nH]c3ccccc32)c(CCc2nccs2)n1`, in data set [1], the Cell viability is on record as 71%.

On to `O=C(Nc1ncc[nH]1)c1cc2c([nH]c3ccccc32)c(CCc2ccccc2)n1`, for which the Cell viability in data set [1] was greater than 100%. In addition, the Activity in data set [2] stood at 78.9%; in [3] it was 10.7%.

With `O=C(Nc1ccncc1)c1cc2c([nH]c3ccccc32)c(CCc2ccccc2)n1`, in data set [1], the Cell viability is on record as greater than 100%. Further, the Activity is recorded as 56.6% in [2] and 18.4% in data set [3].

Consider `Cc1cccc(C)c1NC(=O)c1cc2c([nH]c3ccccc32)c(CCc2ccc(F)cc2)n1`, for which the Cell viability in data set [1] is reported as greater than 100%. Also, the Activity turned out to be 65.2% in data set [2] and 28.2% in [3].

On to `CNc1ccc(CCc2nc(C(=O)Nc3c(C)cccc3C)cc3c2[nH]c2ccccc23)cc1`, for which, in data set [1], the Cell viability was greater than 100%. Further, the Activity in data set [2] came out at 37.9%.
